Measurements reported in patent US20030039628A1, “Activation and protection of T-cells (CD4+ and CD8+) using an H2 receptor agonist and other T-cell activating agents” (priority 1998, published 2003).

Columns and labels:
[1] = target: H2 receptor (Homo sapiens, UniProt P25021); conditions: cited from earlier work
[2] = system: CD69 expression on T-cells; experiment: CD69 expression on T-cells incubated with or without autologous monocytes (MO), flow cytometry; assay type: cell-based, human
Experimental: To study the activation characteristics of T-cells in the presence and absence of MO, T-cell activation compounds, H2-receptor agonists, and H2O2 scavengers, peripheral venous blood was obtained as freshly prepared leukopacks from healthy blood donors at the Blood Centre, Sahlgren's Hospital, Göteborg, Sweden. The blood (65 ml) was mixed with 92.5 ml Iscove's medium, 35 ml 6% Dextran (Kabi Pharmacia, Stockholm, Sweden) and 7.5 ml acid citrate dextrose (ACD) (Baxter, Deerfield, Ill.). After incubation for 15 minutes at room temperature, the supernatant was carefully layered onto Ficoll-Hypaque (Lymphoprep, Myegaard, Norway). Mononuclear cells (MNC) were collected at the interface after centrifugation at 380 g for 15 minutes at room temperature, washed twice in PBS and resuspended in Iscove's medium supplemented with 10% human AB^+ serum. During all further separation of cells, the cell suspensions were kept in siliconized test tubes (Vacuette, Greiner, Stockholm).
The MNC were further separated into lymphocyte and monocyte (MO) populations using the counter-current centrifugal elutriation (CCE) technique originally described by Yasaka and co-workers (Yasaka, T. et al., J. Immunol., 127:1515) with modifications as described in Hansson, M., et al. (J. Immunol., 156: 42 (1996); hereby incorporated by reference). Briefly, the MNC were resuspended in elutration buffer containing 0.05% BSA and 0.015% EDTA in buffered NaCl and fed into a Beckman J2-21 ultracentrifuge with a JE-6B rotor at 2100 rpm. A fraction with >90% MO was obtained at a flow rate of 18 ml/min. A lymphocyte fraction enriched for NK-cells (CD3^−/56^+ phenotype) and T-cells (CD3^+/56^−) was recovered at flow rates of 14-15 ml/min. […] In some experiments, dynabeads (Dynal A/S, Oslo, Norway) coated with anti-CD56 were used to obtain purified lymphocyte preparations of T-cells, as described in detail by Hansson, M., et al., incorporated above.
Flow cytometry was used in the experiments described below to identify the various sub-populations of T-cells. Flow cytometry permits an investigator to examine a population of cells using a number of labeled probes to differentiate sub-populations within the larger whole. In these experiments, the CD3 marker was used to identify the subpopulation of T-cells and the CD4 and CD8 markers were used to further identify the subpopulation of T-cells into T helper cells and CTLs. The effects of MO exposure in the presence and absence of histamine and T-cell activation compounds were determined using the CD69 T-cell activation marker. The expression of the different markers was estimated in a lymphocyte gate using flow cytometry (as described in Hellstrand, K., et al. Cell. Immunol. 138: 44-54 (1991), and hereby incorporated by reference).
The following protocol was used in experiments reporting the detection of surface antigens of cell populations. One million cells were incubated with appropriate fluorescein isothiocynate (FITC) and phycoerythrin (PE) conjugated monoclonal antibodies (Becton & Dickinson, Stockholm, Sweden; 1:1/10^6 cells), on ice for 30 minutes. The cells were washed twice in PBS and resuspended in 500:1 sterile filtered PBS and analyzed by use of flow cytometry on a FACSort with a Lysys II software program (Becton & Dickenson). Lymphocytes were gated on the basis of forward and right angle scatter. The flow rate was adjusted to <200 cells×s^− and at least 5×10^3 cells were analyzed for each sample, if not otherwise stated.
Isolated peripheral blood lymphocytes (150,000 cells/well in a total volume of 0.2 ml) were incubated in microplates for 16 hours at 37° C. in the presence or absence of autologous MO.

[3] = system: T-cells and NK-cells; experiment: MO-induced cell death (apoptosis) of T-cells and NK-cells, flow cytometry; assay type: cell-based, human
Experimental: In this Example, apoptotic morphology of lymphocytes exposed to MO was monitored by staining cells with a dye mix containing acridine orange (10:g/ml; Sigma) and ethidium bromide (10:g/ml; Sigma), both prepared in phosphate buffered saline. One microliter (1:1) of dye mix was added to 25:1 of cells suspension (1-2×10^6/ml) in siliconized test tubes. Thereafter, 10:1 of the cell suspension was placed on a glass slide and immediately counted in a fluorescence microscope (Nikon) under times forty (×40) magnification with qualification of dead, living, apoptotic and non-apoptotic cells. (See Hellstrand, K., et al. J. Immunol., 153: 4940-4947 (1994); Hansson, M., et al., J. Immunol. 156:42-47 (1996)).
(See Hansson M., et al., supra). Cell death in lymphocytes was monitored by gating nonviable T-cells or NK-cells after exposure to MO, with and without histamine or catalase. A gate with reduced forward scatter and increased right angle scatter characteristic of apoptosis was employed in these studies. (See Hansson M., et al., supra; Mizgerd J. P., et al., J. Leukoc. Biol. 59:189 (1996); herein incorporated by reference; gate also described in Example 1).

[4] = system: NK cells; conditions: cited from earlier work
[5] = system: lymphocytes; conditions: cited from earlier work
[6] = system: herpes simplex virus (HSV); conditions: single dose of histamine; cited from earlier work
[7] = system: NK cells; conditions: absence of monocytes; cited from earlier work
[8] = system: T-cell enriched lymphocytes; assay type: cell-based, human
[9] = system: CD3e+ T-cells and CD56+ NK-cells; conditions: cited from earlier work

Chain of H2 receptor (P25021 whole entry): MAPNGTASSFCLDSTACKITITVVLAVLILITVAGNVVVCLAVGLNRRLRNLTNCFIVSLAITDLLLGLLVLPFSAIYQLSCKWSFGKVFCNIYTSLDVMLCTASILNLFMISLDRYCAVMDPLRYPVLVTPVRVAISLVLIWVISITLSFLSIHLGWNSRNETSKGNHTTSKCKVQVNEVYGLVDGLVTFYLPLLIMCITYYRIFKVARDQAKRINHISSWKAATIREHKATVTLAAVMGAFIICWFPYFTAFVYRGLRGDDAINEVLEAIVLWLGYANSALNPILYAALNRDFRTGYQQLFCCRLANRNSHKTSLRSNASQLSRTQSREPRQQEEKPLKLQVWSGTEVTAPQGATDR

CNC(=C[N+](=O)[O-])NCCOCc1ccc(CN(C)C)o1 [AH20399AA]
reduction of affinity for the H2 receptor relative to ranitidine [1]: > 50 fold | antagonism of the histamine response on cytokine-induced CD69 expression ([2]; equimolar or 10-fold lower concentrations than histamine): did not block | reversal of the histamine effect on MO-induced cell death ([3]; concentrations equimolar to 10-fold lower than histamine): not

CN(C)CCCSC(=N)N [dimaprit]
action on histamine's effect on granulocyte mediated suppression of NK cell antibody dependent cytotoxicity [4]: mimicked

NCCc1c[nH]cn1 [histamine]
effect on lymphocyte proliferation in response to phytohemagglutinin or staphylococcal enterotoxin type A [5]: reduce the proliferation | survival time of HSV-inoculated animals [6]: prolong survival time | effect on NK mediated cytotoxicity [7]: no effect or weakly suppressed | effect on vaccine-induced proliferation [8]: strongly potentiated | proliferation of cells not treated with the vaccine [8]: slightly augmented | effect on CD69 expression in CD3+ and CD4+ T-cells incubated with IFN-α ([2]; MO present vs. absence of MO): enhanced the expression of CD69 to a significantly higher level | effect on MO-induced inhibition of IL-2 induced acquisition of CD69 in T-cells ([2]; histamine 50 :M, IL-2 100 U/ml, with MO): counteracted | effect on CD69 expression in non-stimulated or cytokine-activated T-cells ([2]; histamine 50 :M, incubated without MO): did not significantly alter | effect on CD69 expression in CD8+ cells activated with IFN-α ([2]; with MO): restored by histamine to the level observed in pure lymphocytes | ED50 of effect on cytokine-induced expression of CD69 in T-cells ([2]; with MO, histamine 0.1-50:M, dose-dependent): approximately 2 :M | prevention of MO-induced cell death ([3]; all subsets of T-cells and NK-cells, histamine 50 :M, 16 hours): > 80%

OO [hydrogen peroxide]
concentration required to induce apoptosis in CD3e+ T-cells relative to CD56+ NK-cells [9]: Approximately 5 fold

CNC(=C[N+](=O)[O-])NCCSCc1ccc(CN(C)C)o1 [ranitidine]
action on histamine's effect on granulocyte mediated suppression of NK cell antibody dependent cytotoxicity [4]: blocked

IFN-α
change of IFN-α-induced CD69 in CD3e+ cells by the addition of MO ([2]; IFN-α, with vs. without MO): seemingly unchanged | induction of CD69 in CD3e+ cells ([2]; in response to IFN-α (100 U/ml)): ~10% | induction of CD69 in CD4+ cells compared with IL-2 ([2]; incubated without MO, p<0.01): less effective than IL-2 | IFN-α induced level of CD69 on CD4+ cells when MO were added ([2]; with vs. without MO, p<0.05): significantly higher | effect of concomitant treatment on MO-induced cell death and on histamine protection ([3]; 100 U/ml): unaffected

catalase
effect on induction of CD69 in the absence of MO ([2]; absence of MO): did not affect | effect on MO-induced inhibition of cytokine-induced CD69 expression ([2]; catalase 10-200 U/ml, IL-2 100 U/ml, with MO): significantly reversed | effect of catalase alone on percentage of CD3+ cells expressing CD69 ([2]; catalase alone, 0 to 200 U/ml, with MO): little effect | percentage of CD3+ cells expressing the CD69 marker ([2]; with MO, IL-2 100 U/ml, catalase 200 U/ml): ~11% | mimicking of the histamine effect on MO-induced cell death [3]: mimicked
